Assay in all cases: SILAC LC-MS ABPP
Holding throughout (assay type): cell-based
What all share (settings): 25 μM 2 h, live DM93 cells

For experiment [1], the target named is T1, Q13535 (Homo sapiens, UniProt Q13535).
T1 construct: performing SuTEx compound screening directly in cells; endogenous in cells; host or cells: DM93 cells (SILAC), soluble fraction
The procedure, abridged: (§1)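 Ligand engagement is measured as loss of HHS-475 probe labelling at specific tyrosines. SILAC DM93 melanoma cells were treated in situ (25 μM ligand vs DMSO, 2 h, 37 °C; then 100 μM probe, 2 h), and modified peptides were quantified by high-resolution LC-MS/MS after desthiobiotin tagging and avidin capture.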

The target of experiment [2] is T2, P82650 (Homo sapiens, UniProt P82650).
T2 construct: performing SuTEx compound screening directly in cells; endogenous in cells; host or cells: DM93 cells (SILAC)
The procedure, abridged: as §1

The target of experiment [3] is T3, Q04837 (Homo sapiens, UniProt Q04837).
T3 construct: performing SuTEx compound screening directly in cells; endogenous in cells; host or cells: DM93 cells (SILAC)
The method, boiled down:
as §1

Experiment [4] concerns the target T4, Q15654 (Homo sapiens, UniProt Q15654).
T4 construct: performing SuTEx compound screening directly in cells; endogenous in cells; host or cells: DM93 cells (SILAC), soluble fraction
The method, boiled down:
as §1

Experiment [5] addresses T5, Q92878 (Homo sapiens, UniProt Q92878).
T5 construct: endogenous in cells; host or cells: DM93 cells (SILAC), live-cell treatment
The method, boiled down:
as §1

In experiment [6] the target is T6, P02794 (Homo sapiens, UniProt P02794).
T6 construct: endogenous in cells; host or cells: DM93 cells (SILAC)
The procedure, abridged:
as §1

The target of experiment [7] is T7, P54578 (Homo sapiens, UniProt P54578).
T7 construct: endogenous in cells; host or cells: DM93 cells (SILAC)
The procedure, abridged:
as §1

The target in experiment [8] is T8, P19174 (Homo sapiens, UniProt P19174).
T8 construct: endogenous in cells; host or cells: DM93 (SILAC)
The procedure, abridged:
as §1

The target in experiment [9] is T9, P24666 (Homo sapiens, UniProt P24666).
T9 construct: endogenous in cells; host or cells: DM93 (SILAC)
The procedure, abridged:
as §1

The target of experiment [10] is T10, Q00535 (Homo sapiens, UniProt Q00535).
T10 construct: performing SuTEx compound screening directly in cells; endogenous in cells; host or cells: DM93 cells (SILAC)
The method, boiled down:
as §1

The target in experiment [11] is T11, Q14566 (Homo sapiens, UniProt Q14566).
T11 construct: performing SuTEx compound screening directly in cells; endogenous in cells; host or cells: DM93 cells (SILAC), soluble fraction
The method, boiled down: as §1

For experiment [12], the target named is T12, Q9NYF8 (Homo sapiens, UniProt Q9NYF8).
T12 construct: endogenous in cells; host or cells: DM93 cells (SILAC)
The procedure, abridged: as §1

Experiment [13] addresses T13, Q9UJ68 (Homo sapiens, UniProt Q9UJ68).
T13 construct: endogenous in cells; host or cells: DM93 cells (SILAC)
The method, boiled down: as §1

Experiment [14] addresses T14, Q01082 (Homo sapiens, UniProt Q01082).
T14 construct: performing SuTEx compound screening directly in cells; endogenous in cells; host or cells: DM93 cells (SILAC)
The procedure, abridged: as §1

Experiment [15] addresses T15, O43823 (Homo sapiens, UniProt O43823).
T15 construct: endogenous in cells; host or cells: DM93
The procedure, abridged:
as §1

Experiment [16] concerns the target T16, P57081 (Homo sapiens, UniProt P57081).
T16 construct: Probe-modified proteins from the soluble fraction were conjugated to a desthiobiotin-azide tag; endogenous in cells; host or cells: DM93 cells (SILAC)
The method, boiled down: as §1

Experiment [17] deals with T17, P51003 (Homo sapiens, UniProt P51003).
T17 construct: Probe-modified proteins from the soluble fraction were conjugated to a desthiobiotin-azide tag; endogenous in cells; host or cells: DM93 cells (SILAC)
The procedure, abridged:
as §1

For experiment [18], the target named is T18, P15559 (Homo sapiens, UniProt P15559).
T18 construct: endogenous in cells; host or cells: DM93 cells (SILAC)
The procedure, abridged:
as §1

T3 sequence (Q04837 17-148): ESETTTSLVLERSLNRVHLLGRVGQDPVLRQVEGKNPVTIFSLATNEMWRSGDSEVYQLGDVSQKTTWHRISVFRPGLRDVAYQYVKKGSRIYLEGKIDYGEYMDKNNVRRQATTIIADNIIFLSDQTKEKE
T18 sequence (P15559 whole entry): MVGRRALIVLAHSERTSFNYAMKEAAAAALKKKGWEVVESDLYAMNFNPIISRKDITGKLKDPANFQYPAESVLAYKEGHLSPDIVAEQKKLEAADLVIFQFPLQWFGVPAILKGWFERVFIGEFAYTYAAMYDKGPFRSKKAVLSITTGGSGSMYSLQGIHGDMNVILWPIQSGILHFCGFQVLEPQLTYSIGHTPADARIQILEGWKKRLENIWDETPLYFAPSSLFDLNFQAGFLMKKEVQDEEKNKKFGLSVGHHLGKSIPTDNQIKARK
T14 sequence (Q01082 whole entry): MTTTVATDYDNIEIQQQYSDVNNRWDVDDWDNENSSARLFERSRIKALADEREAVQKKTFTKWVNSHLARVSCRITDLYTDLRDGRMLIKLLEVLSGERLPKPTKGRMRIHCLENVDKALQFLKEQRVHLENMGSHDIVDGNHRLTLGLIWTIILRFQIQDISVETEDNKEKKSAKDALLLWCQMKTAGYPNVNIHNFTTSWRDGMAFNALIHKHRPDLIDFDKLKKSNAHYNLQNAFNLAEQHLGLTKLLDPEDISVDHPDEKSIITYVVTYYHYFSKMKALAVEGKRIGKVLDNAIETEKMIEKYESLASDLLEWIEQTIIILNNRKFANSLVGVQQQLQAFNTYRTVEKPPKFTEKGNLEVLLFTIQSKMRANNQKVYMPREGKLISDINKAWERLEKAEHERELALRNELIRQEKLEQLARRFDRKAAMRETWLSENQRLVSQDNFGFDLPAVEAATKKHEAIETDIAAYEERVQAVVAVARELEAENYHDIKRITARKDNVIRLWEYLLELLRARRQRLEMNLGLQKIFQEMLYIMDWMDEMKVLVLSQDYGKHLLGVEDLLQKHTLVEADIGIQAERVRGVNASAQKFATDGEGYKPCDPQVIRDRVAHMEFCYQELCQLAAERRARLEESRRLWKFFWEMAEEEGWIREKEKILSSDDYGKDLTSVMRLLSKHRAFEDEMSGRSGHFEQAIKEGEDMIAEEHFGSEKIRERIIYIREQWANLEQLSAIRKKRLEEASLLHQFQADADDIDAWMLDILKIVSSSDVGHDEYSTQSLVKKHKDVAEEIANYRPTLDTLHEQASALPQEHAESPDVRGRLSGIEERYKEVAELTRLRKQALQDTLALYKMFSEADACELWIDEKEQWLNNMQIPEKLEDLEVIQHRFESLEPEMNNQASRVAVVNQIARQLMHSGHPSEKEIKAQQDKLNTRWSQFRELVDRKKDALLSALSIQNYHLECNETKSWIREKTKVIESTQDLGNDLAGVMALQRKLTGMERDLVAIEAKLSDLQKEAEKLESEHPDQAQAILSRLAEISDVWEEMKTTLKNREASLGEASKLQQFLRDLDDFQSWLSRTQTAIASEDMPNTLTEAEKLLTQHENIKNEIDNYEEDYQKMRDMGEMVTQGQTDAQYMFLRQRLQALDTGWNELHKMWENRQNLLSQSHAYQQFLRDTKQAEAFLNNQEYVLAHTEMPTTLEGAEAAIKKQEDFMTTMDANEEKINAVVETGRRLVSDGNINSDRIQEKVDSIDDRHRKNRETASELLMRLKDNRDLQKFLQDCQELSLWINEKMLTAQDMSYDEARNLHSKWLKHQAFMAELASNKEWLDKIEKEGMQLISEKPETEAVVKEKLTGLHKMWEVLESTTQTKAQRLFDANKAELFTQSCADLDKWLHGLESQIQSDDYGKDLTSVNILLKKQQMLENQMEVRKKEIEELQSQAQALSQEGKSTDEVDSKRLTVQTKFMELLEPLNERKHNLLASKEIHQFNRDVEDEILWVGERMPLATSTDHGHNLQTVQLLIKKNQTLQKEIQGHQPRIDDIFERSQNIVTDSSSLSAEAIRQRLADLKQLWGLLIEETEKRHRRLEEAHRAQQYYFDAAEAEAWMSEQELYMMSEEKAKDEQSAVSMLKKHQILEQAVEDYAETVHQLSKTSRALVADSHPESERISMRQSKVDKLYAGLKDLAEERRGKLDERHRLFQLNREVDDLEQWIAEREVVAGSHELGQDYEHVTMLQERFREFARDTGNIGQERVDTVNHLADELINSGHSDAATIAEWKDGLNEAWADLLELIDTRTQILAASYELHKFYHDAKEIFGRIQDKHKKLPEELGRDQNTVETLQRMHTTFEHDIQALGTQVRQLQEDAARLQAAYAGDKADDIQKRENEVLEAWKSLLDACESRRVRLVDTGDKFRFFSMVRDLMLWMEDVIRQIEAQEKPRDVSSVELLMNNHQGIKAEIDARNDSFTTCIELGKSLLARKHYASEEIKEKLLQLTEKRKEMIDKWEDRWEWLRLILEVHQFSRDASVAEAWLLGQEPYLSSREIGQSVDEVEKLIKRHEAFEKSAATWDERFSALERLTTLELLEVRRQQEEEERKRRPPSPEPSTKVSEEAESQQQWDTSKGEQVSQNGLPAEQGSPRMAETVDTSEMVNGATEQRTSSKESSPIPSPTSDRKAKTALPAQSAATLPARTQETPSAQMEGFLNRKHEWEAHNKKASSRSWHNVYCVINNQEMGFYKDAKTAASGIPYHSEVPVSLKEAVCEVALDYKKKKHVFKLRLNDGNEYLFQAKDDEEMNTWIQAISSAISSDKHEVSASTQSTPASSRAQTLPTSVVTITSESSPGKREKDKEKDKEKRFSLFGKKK
T13 sequence (Q9UJ68 24-235): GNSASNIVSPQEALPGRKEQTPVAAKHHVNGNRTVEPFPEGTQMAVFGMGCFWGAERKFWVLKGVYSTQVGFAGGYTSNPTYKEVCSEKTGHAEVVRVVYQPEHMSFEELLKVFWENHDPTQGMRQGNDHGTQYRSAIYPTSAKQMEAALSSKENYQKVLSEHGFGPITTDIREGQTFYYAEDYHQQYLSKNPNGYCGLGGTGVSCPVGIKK
T17 sequence (P51003 whole entry): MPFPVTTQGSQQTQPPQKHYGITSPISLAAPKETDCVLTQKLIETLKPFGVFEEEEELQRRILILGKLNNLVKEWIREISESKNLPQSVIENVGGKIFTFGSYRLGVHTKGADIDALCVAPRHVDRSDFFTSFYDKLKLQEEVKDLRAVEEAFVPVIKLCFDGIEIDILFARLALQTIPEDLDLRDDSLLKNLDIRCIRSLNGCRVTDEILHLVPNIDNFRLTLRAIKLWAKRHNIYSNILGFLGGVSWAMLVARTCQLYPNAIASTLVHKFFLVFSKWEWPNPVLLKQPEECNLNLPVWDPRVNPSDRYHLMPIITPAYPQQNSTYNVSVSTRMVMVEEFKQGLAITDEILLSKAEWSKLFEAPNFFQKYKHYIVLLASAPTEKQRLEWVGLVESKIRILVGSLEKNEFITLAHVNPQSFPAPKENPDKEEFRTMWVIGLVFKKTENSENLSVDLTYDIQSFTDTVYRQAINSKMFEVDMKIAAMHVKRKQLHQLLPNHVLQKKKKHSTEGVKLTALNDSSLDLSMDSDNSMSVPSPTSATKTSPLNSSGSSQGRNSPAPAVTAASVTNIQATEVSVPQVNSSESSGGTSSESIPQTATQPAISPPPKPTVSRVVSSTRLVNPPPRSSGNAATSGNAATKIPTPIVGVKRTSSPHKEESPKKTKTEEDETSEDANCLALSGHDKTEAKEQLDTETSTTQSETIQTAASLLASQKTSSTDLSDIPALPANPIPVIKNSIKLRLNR
T6 sequence (P02794 whole entry): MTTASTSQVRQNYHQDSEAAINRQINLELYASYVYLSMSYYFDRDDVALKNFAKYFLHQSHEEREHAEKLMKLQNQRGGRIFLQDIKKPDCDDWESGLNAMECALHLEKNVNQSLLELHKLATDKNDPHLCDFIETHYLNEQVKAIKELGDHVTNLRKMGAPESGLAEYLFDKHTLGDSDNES
T15 sequence (O43823 whole entry): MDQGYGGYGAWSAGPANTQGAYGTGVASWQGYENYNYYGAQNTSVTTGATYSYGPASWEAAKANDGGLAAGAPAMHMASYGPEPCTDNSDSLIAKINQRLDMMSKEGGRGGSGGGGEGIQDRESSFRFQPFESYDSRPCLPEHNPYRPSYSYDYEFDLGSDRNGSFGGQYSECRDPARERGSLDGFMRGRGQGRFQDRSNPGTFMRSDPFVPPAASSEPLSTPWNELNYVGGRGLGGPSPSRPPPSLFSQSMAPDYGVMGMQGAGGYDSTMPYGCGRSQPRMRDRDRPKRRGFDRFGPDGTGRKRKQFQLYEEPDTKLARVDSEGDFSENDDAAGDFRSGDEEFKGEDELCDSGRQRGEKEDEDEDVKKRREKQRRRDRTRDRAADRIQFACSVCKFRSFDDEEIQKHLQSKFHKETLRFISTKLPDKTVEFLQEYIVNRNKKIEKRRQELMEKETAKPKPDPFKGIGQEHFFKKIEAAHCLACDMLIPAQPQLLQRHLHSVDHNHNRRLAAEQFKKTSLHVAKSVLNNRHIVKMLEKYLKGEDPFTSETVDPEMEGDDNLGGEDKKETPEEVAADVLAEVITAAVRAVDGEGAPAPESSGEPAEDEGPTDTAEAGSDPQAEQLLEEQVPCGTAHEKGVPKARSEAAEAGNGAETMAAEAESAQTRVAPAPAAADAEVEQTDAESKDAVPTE
T9 sequence (P24666 whole entry): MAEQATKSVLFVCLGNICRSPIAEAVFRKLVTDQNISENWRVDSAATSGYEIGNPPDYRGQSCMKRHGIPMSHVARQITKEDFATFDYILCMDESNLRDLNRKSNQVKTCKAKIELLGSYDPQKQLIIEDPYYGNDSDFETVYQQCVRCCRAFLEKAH

Turning to `O=C(c1ccc(S(=O)(=O)n2cncn2)cc1)N1CCC(c2ccccc2)CC1` [HHS-0701, (4-((1H-1,2,4-triazol-1-yl)sulfonyl)phenyl)(4-phenylpiperidin-1-yl)methanone], the “liganded tyrosine site 2067” value in [1] was “HHS0701.Y (tyrosine sites that showed >80% reductions (SR >5) in probe labeling in cells treated with compounds (liganded sites))”. Also, the “liganded tyrosine site 163” value in [2] is reported as “HHS0701.Y (tyrosine sites that showed >80% reductions (SR >5) in probe labeling in cells treated with compounds (liganded sites))”. Besides, in experiment [3], the “liganded tyrosine site 101” value was “HHS0701.Y (tyrosine sites that showed >80% reductions (SR >5) in probe labeling in cells treated with compounds (liganded sites))” and the “liganded tyrosine site 119” value is reported as “HHS0701.Y (tyrosine sites that showed >80% reductions (SR >5) in probe labeling in cells treated with compounds (liganded sites))”.

Consider `O=C(NCC1CC1)c1ccc(S(=O)(=O)n2cncn2)cc1` [HHS-0201, 4-((1H-1,2,4-triazol-1-yl)sulfonyl)-N-(cyclopropylmethyl)benzamide], for which the “liganded tyrosine site 157” value in [4] is recorded as “HHS0201.Y (tyrosine sites that showed >80% reductions (SR >5) in probe labeling in cells treated with compounds (liganded sites))”. In experiment [5], the “liganded tyrosine site 244” value is “HHS0201.Y|HHS0301.Y (tyrosine sites that showed >80% reductions (SR >5) in probe labeling in cells treated with compounds (liganded sites))”. Moreover, in experiment [6], the “liganded tyrosine site 13” value is “HHS0201.Y (tyrosine sites that showed >80% reductions (SR >5) in probe labeling in cells treated with compounds (liganded sites))”. Also, the “liganded tyrosine site 401” value in experiment [7] is “HHS0201.Y (tyrosine sites that showed >80% reductions (SR >5) in probe labeling in cells treated with compounds (liganded sites))”. For the same compound, the “liganded tyrosine site 472” value in experiment [8] was “HHS0201.Y (tyrosine sites that showed >80% reductions (SR >5) in probe labeling in cells treated with compounds (liganded sites))”. For the same compound, the “liganded tyrosine site 88” value in experiment [9] is given as “HHS0201.Y|HHS0401.Y|HHS0701.Y (tyrosine sites that showed >80% reductions (SR >5) in probe labeling in cells treated with compounds (liganded sites))”. For the same compound, the “liganded tyrosine site 242” value in experiment [10] was “HHS0201.Y (tyrosine sites that showed >80% reductions (SR >5) in probe labeling in cells treated with compounds (liganded sites))”. In [11], the “liganded tyrosine site 783” value was “HHS0201.Y (tyrosine sites that showed >80% reductions (SR >5) in probe labeling in cells treated with compounds (liganded sites))”.

On to `O=C(NC1CC1)c1ccc(S(=O)(=O)n2cncn2)cc1` [HHS-0101, 4-((1H-1,2,4-triazol-1-yl)sulfonyl)-N-cyclopropylbenzamide], for which the “liganded tyrosine site 322” value in experiment [12] was “HHS0101.Y|HHS0201.Y|HHS0301.Y|HHS0401.Y (tyrosine sites that showed >80% reductions (SR >5) in probe labeling in cells treated with compounds (liganded sites))”. Besides, in [13], the “liganded tyrosine site 211” value is listed as “HHS0101.Y|HHS0401.Y|HHS0701.Y (tyrosine sites that showed >80% reductions (SR >5) in probe labeling in cells treated with compounds (liganded sites))”. In addition, the “liganded tyrosine site 777” value in [14] was “HHS0101.Y|HHS0201.Y|HHS0401.Y (tyrosine sites that showed >80% reductions (SR >5) in probe labeling in cells treated with compounds (liganded sites))”.

`O=C(NCc1ccccc1)c1ccc(S(=O)(=O)n2cncn2)cc1` [HHS-0401, 4-((1H-1,2,4-triazol-1-yl)sulfonyl)-N-benzylbenzamide]: in [15], the “liganded tyrosine site 436” value was “HHS0401.Y (tyrosine sites that showed >80% reductions (SR >5) in probe labeling in cells treated with compounds (liganded sites))”. The “liganded tyrosine site 371” value in [16] is reported as “HHS0401.Y (tyrosine sites that showed >80% reductions (SR >5) in probe labeling in cells treated with compounds (liganded sites))”. Further, in experiment [17], the “liganded tyrosine site 327” value is on record as “HHS0401.Y|HHS0701.Y (tyrosine sites that showed >80% reductions (SR >5) in probe labeling in cells treated with compounds (liganded sites))”. Also, the “liganded tyrosine site 76” value in experiment [18] is “HHS0401.Y|HHS0701.Y (tyrosine sites that showed >80% reductions (SR >5) in probe labeling in cells treated with compounds (liganded sites))”.

The values above are taken from patent publication US20240210412A1, “SULFONYL-TRIAZOLE COMPOUNDS USEFUL AS LIGANDS AND INHIBITORS OF PROSTAGLANDIN REDUCTASE 2” (University of Virginia Patent Foundation, priority 2021, published 2024).
